We go through nine compounds from US20080194637A1, “Small organic molecule regulators of cell proliferation” (Curis, Inc., priority 2006, published 2008).

Holding throughout (format): cell-based
Experiment [1] has as its system sonic hedgehog pathway, HepM human embryonic palatal mesenchymal cells. Briefly: Human hedgehog reporter assay HEPM-GliLuc (HGL). The note with it: HepM human embryonic palatal mesenchymal cells, gli-luciferase reporter, Table 1. From the text: (§1) Mouse (TM3: mouse Leydig cells; S12: mouse embryonic mesenchymal cells) and human (Daoy: human medulloblastoma cell; HepM: human embryonic palatal mesenchymal cell) cell lines are used to screen small molecules for their ability to modulate the activity of the sonic hedgehog pathway (Table 1, Table 2, and Table 3). Stable hedgehog pathway reporter cell lines are established by specific antibiotic selection following transfection of a reporter plasmid containing a luciferase gene located directly downstream from the gli promoter. Consequently, any observable changes in cellular luciferase activity may be attributed to changes in sonic hedgehog pathway activity in mouse and human cells, respectively, since gli is the major by-product of this pathway. To calculate activity, we generate an eleven point dose curve for each compound using 1:3 dilutions in 96 well assay plates. Each plate tested also contains low and high control to establish maximal pathway activation so to establish/compare a percentage activation of each tested compound (AMAX) on respective plates. Also we calculate EC50 values, or a concentration where the pathway will be exactly 50% activated, for each tested compound to determine potency. In these cell lines, compounds that register >20% AMAX values are considered active.
(§2) Stable hedgehog pathway reporter cell lines are established following specific antibiotic selection following transfection of a reporter plasmid In short, typically cells are plated in MicroTiter-plates at 10,000-20,000 cells per well, in growth media (containing 10%-20% FBS). After 48-72 hrs (HGL and DGL respectively) the media in the assay plates is switched to low-serum containing media (0.5% FBS). At that time compounds are added (at 1-5 μM) to the assay plates, in the presence or absence of hedgehog protein (octyl-modified version; 1-5 ng/ml). After another 24 hrs of incubation, the media from the assay plates is discarded and replaced with luciferase assay-mix. Subsequently, plates are incubated at RT for ˜15-30 mins and then read in a luminometer. [note: addition of the Hedgehog protein, although not critical, will sensitize the assay allowing the identification of weak actives].
For orientation: A reporter such as luciferase makes a cellular process visible.

The subject of experiment [2] is sonic hedgehog pathway, TM3 mouse Leydig cells. Briefly: Hedgehog pathway Gli-luciferase reporter assay in TM3 cells.
From the text: as §1, §2

In experiment [3] the test system is sonic hedgehog pathway, Daoy human medulloblastoma cells. Briefly: Human hedgehog reporter assay Daoy-GliLuc (DGL). The note with it: gli-luciferase reporter, read-out: Daoy Avg. EC50.
From the text: as §1, §2

[4] abbreviates: Daoy human medulloblastoma cells, Table 1.

Counter-ions that a name gives are not always drawn. Like-named read-outs stand apart in the source and are kept apart here.

In the case of `CN[C@H]1CC[C@@H](N(Cc2cc(-c3ccc(C)nc3)ccc2OC)C(=O)c2sc3ccccc3c2Cl)CC1` [Compound 320, 3-Chloro-benzo[b]thiophene-2-carboxylic acid [2-methoxy-5-(6-methyl-pyridin-3-yl)-benzyl]-(4-methylamino-cyclohexyl)-amide dihydrochloride], the EC50 in experiment [1] and in experiment [2] (Table 1) was below 0.05 µM each time.

On to `CCOc1ccc(-c2ccc(C(F)(F)F)cc2)cc1CN(C(=O)c1sc2ccccc2c1Cl)[C@H]1CC[C@@H](NC)CC1` [Compound 309, 3-Chloro-benzo[b]thiophene-2-carboxylic acid (4-ethoxy-4′-trifluoromethyl-biphenyl-3-ylmethyl)-(4-methylamino-cyclohexyl)-amide hydrochloride], for which the EC50 in experiment [3] (setting [4]) is below 0.05 µM; in experiment [2] (Table 1) it was 0.05 to 0.25 µM.

Regarding `CCOc1ccc(-c2ccccc2)cc1CN(C(=O)c1sc2ccccc2c1Cl)[C@H]1CC[C@@H](NC)CC1` [Compound 313, 3-Chloro-benzo[b]thiophene-2-carboxylic acid (4-ethoxy-biphenyl-3-ylmethyl)-(4-methylamino-cyclohexyl)-amide hydrochloride], the results for the EC50 in experiment [3] (setting [4]) and in experiment [2] (Table 1) were below 0.05 µM and 0.05 to 0.25 µM, respectively.

`CN[C@H]1CC[C@H](N(Cc2cc(-c3ccc(C(O)C(F)(F)F)cc3)ccc2F)C(=O)c2sc3ccccc3c2Cl)CC1` (some centres unmarked) [Compound 433, 3-Chloro-benzo[b]thiophene-2-carboxylic acid [4-fluoro-4′-(2,2,2-trifluoro-1-hydroxy-ethyl)-biphenyl-3-ylmethyl]-(4-methylamino-cyclohexyl)-amide hydrochloride]: the EC50 was below 0.05 µM in experiment [3] (Daoy human cells, Table 3) and below 0.05 µM in experiment [2] (Table 3).

For the compound `CN[C@H]1CC[C@@H](N(Cc2cc(-c3ccc(OC(F)(F)F)cc3)ccc2OC)C(=O)c2sc3ccccc3c2Cl)CC1` [Compound 307, 3-Chloro-benzo[b]thiophene-2-carboxylic acid (4-methoxy-4′-trifluoromethoxy-biphenyl-3-ylmethyl)-(4-methylamino-cyclohexyl)-amide hydrochloride], the half-maximal effective concentration (EC50) in experiment [3] (setting [4]) and in experiment [2] (Table 1) was below 0.05 µM in each case.

For `CN[C@H]1CC[C@@H](N(Cc2cc(-c3ccc(C#N)cc3)ccc2OC)C(=O)c2sc3cccc(F)c3c2Cl)CC1` [Compound 366, 3-Chloro-4-fluoro-benzo[b]thiophene-2-carboxylic acid (4′-cyano-4-methoxy-biphenyl-3-ylmethyl)-(4-methylamino-cyclohexyl)-amide hydrochloride], the EC50 in experiment [3] (setting [4]) and in experiment [2] (Table 1) was below 0.05 µM each time.

Take `CN[C@H]1CC[C@@H](N(Cc2cc(-c3cccc(C#N)c3)ccc2OC)C(=O)c2sc3cccc(F)c3c2Cl)CC1` [Compound 365, 3-Chloro-4-fluoro-benzo[b]thiophene-2-carboxylic acid (3′-cyano-4-methoxy-biphenyl-3-ylmethyl)-(4-methylamino-cyclohexyl)-amide hydrochloride]: the EC50 in experiment [3] (setting [4]) and in experiment [2] (Table 1) was below 0.05 µM throughout.

For the compound `CN[C@H]1CC[C@@H](N(Cc2cc(-c3cnc(N(C)C)nc3)ccc2OC)C(=O)c2sc3ccccc3c2Cl)CC1` [Compound 321, 3-Chloro-benzo[b]thiophene-2-carboxylic acid [5-(2-dimethylamino-pyrimidin-5-yl)-2-methoxy-benzyl]-(4-methylamino-cyclohexyl)-amide dihydrochloride], the values for the 50% effective concentration (EC50) in experiment [3] (setting [4]) and in experiment [2] (Table 1) were 0.05 to 0.25 µM and 1 to 2.5 µM, respectively.

For `CCOc1ccc(-c2ccc(OC)cc2)cc1CN(C(=O)c1sc2ccccc2c1Cl)[C@H]1CC[C@@H](NC)CC1` [Compound 312, 3-Chloro-benzo[b]thiophene-2-carboxylic acid (4-ethoxy-4′-methoxy-biphenyl-3-ylmethyl)-(4-methylamino-cyclohexyl)-amide hydrochloride], the EC50 in experiment [3] (setting [4]) lay within 0.05 to 0.25 µM.

In general, EC50 refers to the concentration that produces a half-maximal response.
